The experiment deals with PKC mediated IL-2 production. As to the kind of experiment: IL-2 ELISA, human primary T cell, anti CD3+CD28+. Format: cell-based. Particulars: Homo sapiens, T-cell, 24 h, human primary T cells stimulated with αCD3 and αCD28, 24 hours. The method, boiled down:
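Human peripheral blood T cells, pre-expanded with αCD3/αCD28 and IL-2 and then washed free of IL-2, were pre-incubated with compound for 1 h at 37° C. They were then stimulated on plates coated with […] αCD3 and 5 μg/ml αCD28, or with 0.5 ng/ml PMA plus 0.1 uM ionomycin in the counter assay. IL-2 in supernatants was measured by ELISA after 24 h.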

One may read the EC50 as the concentration that produces a half-maximal response. Low values mean a more potent agent, high ones a less potent agent. On to `Cc1nnnn1-c1cc(Nc2ncc(F)c(N[C@@H]3C[C@@H]4CCCN4C(C)(C)C3)n2)c(F)cc1O` [Compound 252, 4-(4-((7R,8aS)-octahydro-5,5-dimethylindolizin-7-ylamino)-5-fluoropyrimidin-2-ylamino)-5-fluoro-2-(5-methyl-1H-tetrazol-1-yl)phenol], for which the EC50 was in the range of 1000 to 10000 nM.
`CNc1nc2cc(Nc3ncc(F)c(N[C@@H]4C[C@@H]5CCCN5C(C)(C)C4)n3)c(F)cc2o1` [Compound 253, N5-(4-((7R,8aS)-octahydro-5,5-dimethylindolizin-7-ylamino)-5-fluoropyrimidin-2-yl)-6-fluoro-N2-methylbenzo[d]oxazole-2,5-diamine]: the EC50 lay within 1000 to 10000 nM.
The compound `CC1(C)C[C@H](Nc2nc(Nc3cc(-n4nnnc4C4CC4)c(OC4COC4)cc3F)ncc2F)C[C@@H]2CCCN21` [Compound 255, N2-(5-(5-cyclopropyl-1H-tetrazol-1-yl)-2-fluoro-4-(oxetan-3-yloxy)phenyl)-5-fluoro-N4-((7R,8aS)-octahydro-5,5-dimethylindolizin-7-yl)pyrimidine-2,4-diamine] gave an EC50 of less than 100 nM.
Regarding `CC1(C)C[C@H](Nc2nc(Nc3cc(-n4nnnc4C4CC4)c(O)cc3F)ncc2F)C[C@@H]2CCCN21` [Compound 256, 4-(4-((7R,8aS)-octahydro-5,5-dimethylindolizin-7-ylamino)-5-fluoropyrimidin-2-ylamino)-2-(5-cyclopropyl-1H-tetrazol-1-yl)-5-fluorophenol], the EC50 lay in the range of 1000 to 10000 nM.
Then `CC(C)Oc1cc(F)c(Nc2ncc(F)c(N[C@@H]3C[C@@H]4CCCN4C(C)(C)C3)n2)cc1-n1nnnc1C1CC1` [Compound 257, N2-(5-(5-cyclopropyl-1H-tetrazol-1-yl)-2-fluoro-4-isopropoxyphenyl)-5-fluoro-N4-((7R,8aS)-octahydro-5,5-dimethylindolizin-7-yl)pyrimidine-2,4-diamine], with more than 10000 nM.
Then `CNc1nnnn1-c1cc(Nc2ncc(F)c(N[C@@H]3C[C@@H]4CCCN4C(C)(C)C3)n2)c(F)cc1OC1COC1` [Compound 258, 5-fluoro-N2-(2-fluoro-5-(5-(methylamino)-1H-tetrazol-1-yl)-4-(oxetan-3-yloxy)phenyl)-N4-((7R,8aS)-octahydro-5,5-dimethylindolizin-7-yl)pyrimidine-2,4-diamine], with 1000 to 10000 nM; and `CC1(C)C[C@H](Nc2nc(Nc3cccc(-n4nnnc4S)c3)ncc2F)C[C@@H]2CCCN21` [Compound 259, 1-(3-(4-((7R,8aS)-octahydro-5,5-dimethylindolizin-7-ylamino)-5-fluoropyrimidin-2-ylamino)phenyl)-1H-tetrazole-5-thiol], with 1000 to 10000 nM; and `CC1(C)C[C@H](Nc2nc(Nc3cccc(-n4nn[nH]c4=O)c3)ncc2F)C[C@@H]2CCCN21` [Compound 260, 1-(3-(4-((7R,8aS)-octahydro-5,5-dimethylindolizin-7-ylamino)-5-fluoropyrimidin-2-ylamino)phenyl)-1H-tetrazol-5(4H)-one], with more than 10000 nM.
Then `CSc1nnnn1-c1cccc(Nc2ncc(F)c(N[C@@H]3C[C@@H]4CCCN4C(C)(C)C3)n2)c1` [Compound 261, 5-fluoro-N4-((7R,8aS)-octahydro-5,5-dimethylindolizin-7-yl)-N2-(3-(5-(methylthio)-1H-tetrazol-1-yl)phenyl)pyrimidine-2,4-diamine], with less than 100 nM.
For `CC1(C)C[C@H](Nc2nc(Nc3cccc(-n4nnnc4SC4COC4)c3)ncc2F)C[C@@H]2CCCN21` [Compound 262, 5-fluoro-N4-((7R,8aS)-octahydro-5,5-dimethylindolizin-7-yl)-N2-(3-(5-(oxetan-3-ylthio)-1H-tetrazol-1-yl)phenyl)pyrimidine-2,4-diamine], the EC50 is less than 100 nM.
Then `CC1(C)C[C@H](Nc2nc(Nc3cccc(-n4nnnc4SC(CO)CO)c3)ncc2F)C[C@@H]2CCCN21` [Compound 263, 2-(1-(3-(4-((7R,8aS)-octahydro-5,5-dimethylindolizin-7-ylamino)-5-fluoropyrimidin-2-ylamino)phenyl)-1H-tetrazol-5-ylthio)propane-1,3-diol], with 100 to 500 nM; and `CC1(C)C[C@H](Nc2nc(Nc3cccc(-n4nnnc4SC(CN)CO)c3)ncc2F)C[C@@H]2CCCN21` (stereo partly drawn) [Compound 264, 2-(1-(3-(4-((7R,8aS)-octahydro-5,5-dimethylindolizin-7-ylamino)-5-fluoropyrimidin-2-ylamino)phenyl)-1H-tetrazol-5-ylthio)-3-aminopropan-1-ol], with 1000 to 10000 nM.
As for `CC1(C)C[C@H](Nc2nc(Nc3cccc(-n4nnn(C5COC5)c4=O)c3)ncc2F)C[C@@H]2CCCN21` [Compound 265, 1-(3-(4-((7R,8aS)-octahydro-5,5-dimethylindolizin-7-ylamino)-5-fluoropyrimidin-2-ylamino)phenyl)-4-(oxetan-3-yl)-1H-tetrazol-5(4H)-one], the figure is 100 to 500 nM.
Then `CC1(C)C[C@H](Nc2nc(Nc3cccc(-n4nnnc4SCCO)c3)ncc2F)C[C@@H]2CCCN21` [Compound 266, 2-(1-(3-(4-((7R,8aS)-octahydro-5,5-dimethylindolizin-7-ylamino)-5-fluoropyrimidin-2-ylamino)phenyl)-1H-tetrazol-5-ylthio)ethanol], with less than 100 nM.
In turn, `CC1(C)C[C@H](Nc2nc(Nc3cccc(-n4nnn(CCO)c4=O)c3)ncc2F)C[C@@H]2CCCN21` [Compound 267, 1-(3-(4-((7R,8aS)-octahydro-5,5-dimethylindolizin-7-ylamino)-5-fluoropyrimidin-2-ylamino)phenyl)-4-(2-hydroxyethyl)-1H-tetrazol-5(4H)-one] displayed an EC50 of 100 to 500 nM.
Then `CC1(C)Oc2ccc(Nc3ncc(F)c(N[C@@H]4C[C@@H]5CCCN5C(C)(C)C4)n3)cc2-n2c1nn(CCO)c2=O` [Compound 268, 5-fluoro-N2-(1H-2,4-dihydron-2-(2-hydroxyethyl)-4,4-dimethyl-[1,2,4]triazolo[3,4-c][1,4]benzoxazin-1-one-8-yl)-N4-((7R,8aS)-octahydro-5,5-dimethylindolizin-7-yl)pyrimidine-2,4-diamine], with 1000 to 10000 nM.
Regarding `CC1(C)C[C@H](Nc2nc(Nc3cccc(-n4nnnc4S(C)(=O)=O)c3)ncc2F)C[C@@H]2CCCN21` [Compound 269, 5-fluoro-N4-((7R,8aS)-octahydro-5,5-dimethylindolizin-7-yl)-N2-(3-(5-(methylsulfonyl)-1H-tetrazol-1-yl)phenyl)pyrimidine-2,4-diamine], the EC50 lay within 500 to 1000 nM.
Then `C[S+]([O-])c1nnnn1-c1cccc(Nc2ncc(F)c(N[C@@H]3C[C@@H]4CCCN4C(C)(C)C3)n2)c1` (stereo partly drawn) [Compound 270, 5-fluoro-N4-((7R,8aS)-octahydro-5,5-dimethylindolizin-7-yl)-N2-(3-(5-(methylsulfinyl)-1H-tetrazol-1-yl)phenyl)pyrimidine-2,4-diamine], with 500 to 1000 nM.
In the case of `Cc1ccc(Nc2ncc(F)c(N[C@@H]3C[C@@H]4CCCN4C(C)(C)C3)n2)cc1-n1nn[nH]c1=O` [Compound 272, 1-(5-(4-((7R,8aS)-octahydro-5,5-dimethylindolizin-7-ylamino)-5-fluoropyrimidin-2-ylamino)-2-methylphenyl)-1H-tetrazol-5(4H)-one], the EC50 was more than 10000 nM.
The compound `Cc1ccc(Nc2ncc(F)c(N[C@@H]3C[C@@H]4CCCN4C(C)(C)C3)n2)cc1-n1nnn(C)c1=O` [Compound 273, 1-(5-(4-((7R,8aS)-octahydro-5,5-dimethylindolizin-7-ylamino)-5-fluoropyrimidin-2-ylamino)-2-methylphenyl)-4-methyl-1H-tetrazol-5(4H)-one] registered an EC50 of less than 100 nM.
As for `Cc1ccc(Nc2ncc(F)c(N[C@@H]3C[C@@H]4CCCN4C(C)(C)C3)n2)cc1-n1nnn(CCO)c1=O` [Compound 275, 1-(5-(4-((7R,8aS)-octahydro-5,5-dimethylindolizin-7-ylamino)-5-fluoropyrimidin-2-ylamino)-2-methylphenyl)-4-(2-hydroxyethyl)-1H-tetrazol-5(4H)-one], the figure is 100 to 500 nM; as for `Cc1ccc(Nc2ncc(F)c(N[C@@H]3C[C@@H]4CCCN4C(C)(C)C3)n2)cc1-n1nnn(C2COC2)c1=O` [Compound 276, 1-(5-(4-((7R,8aS)-octahydro-5,5-dimethylindolizin-7-ylamino)-5-fluoropyrimidin-2-ylamino)-2-methylphenyl)-4-(oxetan-3-yl)-1H-tetrazol-5(4H)-one], less than 100 nM; as for `COc1ccc(Nc2ncc(F)c(N[C@@H]3C[C@@H]4CCCN4C(C)(C)C3)n2)cc1-n1nn[nH]c1=O` [Compound 277, 1-(5-(4-((7R,8aS)-octahydro-5,5-dimethylindolizin-7-ylamino)-5-fluoropyrimidin-2-ylamino)-2-methoxyphenyl)-1H-tetrazol-5(4H)-one], more than 10000 nM.
In turn, `COc1ccc(Nc2ncc(F)c(N[C@@H]3C[C@@H]4CCCN4C(C)(C)C3)n2)cc1-n1nnn(C)c1=O` [Compound 278, 1-(5-(4-((7R,8aS)-octahydro-5,5-dimethylindolizin-7-ylamino)-5-fluoropyrimidin-2-ylamino)-2-methoxyphenyl)-4-methyl-1H-tetrazol-5(4H)-one] had an EC50 of less than 100 nM.
As for `COc1ccc(Nc2ncc(F)c(N[C@@H]3C[C@@H]4CCCN4C(C)(C)C3)n2)cc1-n1nnn(CCO)c1=O` [Compound 280, 1-(5-(4-((7R,8aS)-octahydro-5,5-dimethylindolizin-7-ylamino)-5-fluoropyrimidin-2-ylamino)-2-methoxyphenyl)-4-(2-hydroxyethyl)-1H-tetrazol-5(4H)-one], the figure is 500 to 1000 nM.
Regarding `CSc1nnnn1-c1cc(Nc2ncc(F)c(N[C@@H]3C[C@@H]4CCCN4C(C)(C)C3)n2)ccc1C` [Compound 281, 5-fluoro-N4-((7R,8aS)-octahydro-5,5-dimethylindolizin-7-yl)-N2-(4-methyl-3-(5-(methylthio)-1H-tetrazol-1-yl)phenyl)pyrimidine-2,4-diamine], the EC50 was less than 100 nM.

Source of the values: US9682976B2, “Protein kinase C inhibitors and uses thereof” (Rigel Pharmaceuticals, Inc., priority 2012, dated 2017).
